System: KDM5A and KDM5B
Assay: In vitro cell-based assay: tri-methyl H3K4 immuno-blotting in ZR-75-1 breast cancer cells
Conditions: 72 hr, read-out: Cellular IC50
Procedure: This quantitative immuno-blotting assay measures the amount tri-methylated histone H3 at amino acid Lysine number 4, a specific substrate […] of the direct enzymatic activity of the histone demethylases KDM5A and KDM5B from extracts of the ZR-75-1 breast cancer cell line.
This assay is a fluorometric immunoassay for the quantification of tri-methyl H3K4 extracted from cells treated with test compound and is used as a measure of the cellular inhibition of KDM5A/B.
Extracts were prepared containing all of the cellular histone material using detergent based lysis and sonication methods. These lysates were subsequently normalized for total protein content using a colorimetric bicinchonic acid assay (MicroBCA Pierce/Thermo Scientific). Normalized cell extracts were then subjected to typical immuno-blotting procedures using NuPage reagents (Life Technologies). […] The amount of tri-methylated lysine 4 of histone H3 was detected using an antibody specific to the tri-methylated state (Cell Signaling Technologies) and quantified on an infrared imager using a densitometry software package (Odyssey CLx, Image Studio, Li-Cor). This background subtracted densitometry value was reported as a ration of the GAPDH amount for that sample and then calculated as a percent of the DMSO treated sample.

In the case of `O=C(O)c1ccncc1Nc1cn(C2CCOC2)c2ccc(F)cc12` (stereo not shown) [Example 68, 3-{[5-fluoro-1-(tetrahydrofuran-3-yl)-1H-indol-3-yl]amino}pyridine-4-carboxylic acid], the IC50 is reported as 1 to 10 µM.

Source: patent publication US10040779B2, “Histone demethylase inhibitors” (priority 2012, dated 2018)
